Results as given in patent publication US9850206B2, “S1P and/or ATX modulating agents” (BIOGEN MA INC., priority 2012, dated 2017).
Read-outs that look alike come from different tables or passages of the source.

Assays:
S1P1 = S1P1 (Homo sapiens, UniProt P21453); experiment: S1P receptor activity assay (calcium flux, FLIPR TETRA), S1P1; assay type: cell-based
From the text: (§1) Agonist percentage activation determinations were obtained by assaying sample compounds and referencing the Emax control for each receptor profiled. Antagonist percentage inhibition determinations were obtained by assaying sample compounds and referencing the control EC80 wells for each receptor profiled. The samples were run using a “Single Addition” assay protocol for the agonist and antagonist assay run. The protocol design was as follows:
(§2) Master stock solution: Unless specified otherwise, all sample compounds were diluted in 100% anhydrous DMSO including all serial dilutions. All control wells contained identical solvent final concentrations as did the sample compound wells.
(§3) Compound plate for assay: The sample compounds were transferred from a master stock solution into a daughter plate that was used in the assay. Each sample compound was diluted into assay buffer (1×HBSS with 20 mM HEPES and 2.5 mM Probenecid) at an appropriate concentration to obtain final concentrations.
(§4) Sample compounds were plated in an eight-point, four-fold dilution series in duplicate with a top concentration of 10 μM. The concentrations described here reflect the final concentration of the compounds during the antagonist assay.
(§5) Reference agonists were handled as mentioned above serving as assay control. The reference agonists were handled as described above for Emax.
(§6) Assay was read for 180 seconds using the […] (This assay run added sample compounds and reference agonist to respective wells). At the completion of the first “Single Addition” assay run, assay plate was removed from the […] and placed at 25° C. for seven (7) minutes.
(§7) Using the EC80 values determined during the agonist assay, stimulated all pre-incubated sample compound and reference antagonist (if applicable) wells with EC80 of reference agonist. Read for 180 seconds using the […] (This assay added reference agonist to respective wells—then fluorescence measurements were collected to calculate percentage inhibition values).
(§8) All plates were subjected to appropriate baseline corrections. Once baseline corrections were processed, maximum fluorescence values were exported and data manipulated to calculate percentage activation, percentage inhibition and Z′.

S1P4 = target: T1, S1P4 (Homo sapiens, UniProt O95977); experiment: S1P receptor activity assay (calcium flux, FLIPR TETRA), S1P4; assay type: cell-based
T1 sequence (O95977 1-384): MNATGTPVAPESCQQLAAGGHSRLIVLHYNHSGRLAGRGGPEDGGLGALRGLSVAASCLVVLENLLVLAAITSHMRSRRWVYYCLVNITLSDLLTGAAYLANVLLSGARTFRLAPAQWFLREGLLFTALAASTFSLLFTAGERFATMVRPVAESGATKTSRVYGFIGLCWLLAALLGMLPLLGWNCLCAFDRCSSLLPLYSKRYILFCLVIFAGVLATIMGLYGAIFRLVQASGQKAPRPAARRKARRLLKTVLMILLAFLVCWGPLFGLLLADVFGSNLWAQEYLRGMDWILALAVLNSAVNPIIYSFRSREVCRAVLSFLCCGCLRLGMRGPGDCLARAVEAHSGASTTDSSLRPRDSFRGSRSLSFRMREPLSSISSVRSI
From the text: as §1, §2, §3, §4, §5, §6, §7, §8

S1P5 = S1P5 (Homo sapiens, UniProt Q9H228); experiment: S1P receptor activity assay (calcium flux, FLIPR TETRA), S1P5; assay type: cell-based
S1P5, sequence (Q9H228 whole entry): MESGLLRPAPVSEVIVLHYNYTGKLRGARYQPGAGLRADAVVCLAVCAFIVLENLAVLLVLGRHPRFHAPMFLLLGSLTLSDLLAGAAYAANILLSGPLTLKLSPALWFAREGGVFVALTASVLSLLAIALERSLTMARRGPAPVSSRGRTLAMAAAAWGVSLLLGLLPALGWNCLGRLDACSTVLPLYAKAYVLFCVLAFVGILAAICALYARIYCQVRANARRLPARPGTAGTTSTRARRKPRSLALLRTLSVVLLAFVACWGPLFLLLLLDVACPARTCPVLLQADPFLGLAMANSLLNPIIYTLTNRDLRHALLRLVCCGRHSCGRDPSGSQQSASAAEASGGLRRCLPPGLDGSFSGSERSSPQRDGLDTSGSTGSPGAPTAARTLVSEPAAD
From the text: as §1, §2, §3, §4, §5, §6, §7, §8

Human ATX protein = target: T2, Human ATX protein (Homo sapiens, UniProt Q13822); experiment: Autotaxin (ATX) FRET assay with FS-3 substrate; assay type: biochemical
T2 construct: made in house
From the text: ATX (Autotaxin) is a 125 KDa glycoprotein with lysophospholipase D (LPLD) activity that generates the bioactive lipid lysophosphatidic acid (LPA) from lysophosphatidylcholine (LPC). The ATX biochemical assay utilizes a FRET (fluorescence resonance energy transfer) technology platform. […] ATX catalyzes the hydrolysis of the substrate which separates the dabsyl quencher from the fluorescein reporter, which becomes fluorescent. The reaction is monitored by a SpectraMax M5 (Molecular Devices, Sunnyvale, Calif.) with at excitation wavelength 485 nm and emission wavelength 535 nm.
Fatty acid free-BSA (Sigma A8806): 10 mg/mL in H2O, stored at 4° C.
2×ATX assay buffer: 100 mM Tris, 280 mM NaCl, 10 mM KCl, 2 mM CaCl2, 2 mM MgCl2, pH 7.4.
Human ATX protein: expressed and purified in house. Stored at −80° C.
Substrate FS-3 (Echelon, L-2000): 100 μg in 77.74 μL H2O (1 mM stock), stored at −20° C.
Compound dilution—All compounds were provided at 10 mM in 100% DMSO. In the first well, 2 μL of 10 mM compound was added to 78 μL of DMSO (1:40 dilution). In subsequent wells 3-fold dilution (total 10 dilutions) were performed.
1×ATX assay buffer was made up with a final concentration of 1 mg/mL fatty acid free-BSA using 2×ATX assay buffer, 10 mg/ml fatty acid free-BSA and ddH2O.
38 μL was added per well to the assay plate. The final concentration of ATX in the reaction as 1.0 μg/mL.
2 μL per well of compounds was transferred to provide the desired concentration. The plate was centrifuged, then incubated at room temperature for 30 minutes on the shaker.
FS-3 was diluted with 1×ATX assay buffer to a concentration of FS-3 of 10 μM (5×). Then, 10 μL was added per well to the assay plate. The final concentration of FS-3 in the reaction was 2 μM. The plate was centrifuged. The plate was kept shaking at room temperature for 2 hours. Because FS-3 substrate is light sensitive, plates were kept covered and protected from light.

[1] = calcium flux, top concentration 10 μM, the >5 μM sentence says only 'for S1P1', read-out: IC50 for S1P1 agonist activity
[2] = calcium flux, top concentration 10 μM, the >5 μM sentence says only 'for S1P4', read-out: IC50 for S1P4 agonist activity
[3] = calcium flux, top concentration 10 μM, read-out: IC50 for S1P5
[4] = FS-3 2 μM, ATX 1.0 μg/mL, 2 hours at room temperature, read-out: IC50 (ATX)

S1P1, sequence (P21453 whole entry): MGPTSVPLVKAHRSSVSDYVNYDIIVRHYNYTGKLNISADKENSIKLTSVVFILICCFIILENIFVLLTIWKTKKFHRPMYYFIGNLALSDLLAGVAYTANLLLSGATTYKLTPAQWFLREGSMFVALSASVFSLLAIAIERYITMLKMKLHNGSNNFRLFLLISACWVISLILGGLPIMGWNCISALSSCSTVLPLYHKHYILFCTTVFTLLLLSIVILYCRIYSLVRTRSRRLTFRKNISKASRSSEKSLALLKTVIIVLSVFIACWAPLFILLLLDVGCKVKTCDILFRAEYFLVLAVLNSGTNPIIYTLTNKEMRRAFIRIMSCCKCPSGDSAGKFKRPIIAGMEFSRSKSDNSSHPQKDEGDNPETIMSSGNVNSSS

Row | Structure (SMILES) | IC50 (S1P1; [1]) [µM] | IC50 (S1P4; [2]) [µM] | IC50 (S1P5; [3]) [µM] | IC50 (Human ATX protein; [4]) [µM] | IC50 (S1P1) [µM] | IC50 (S1P4) [µM] | IC50 (S1P5) [µM] | IC50 (Human ATX protein) [µM]
1 | CC[C@H]1CC[C@H](Oc2ccc(C3CCN(CCC(=O)O)CC3)cc2)CC1 [Example 28, 3-(4-(4-((trans-4-ethylcyclohexyl)oxy)phenyl)piperidin-1-yl)propanoic acid] | > 5 | > 5 | > 5 | > 10 |  |  |  | 
2 | CC[C@H]1CC[C@H](Oc2ccc(C3=CCN(CCCC(=O)O)CC3)cc2)CC1 [Example 29, 4-(4-(4-((trans-4-Ethylcyclohexyl)oxy)phenyl)-5,6-dihydropyridin-1(2H)-yl)butanoic acid] |  |  | > 5 | > 10 | > 5 | ≤ 2 |  | 
3 | CC(C)(C)[C@H]1CC[C@H](Oc2ccc(C3CCCC(N4CCC(C(=O)O)CC4)C3)cc2)CC1 (stereo partly drawn) [Example 10, 1-(3-(4-(trans-4-tert-butylcyclohexyloxy)phenyl)cyclohexyl)piperidine-4-carboxylic acid] | > 5 | > 5 | > 5 | > 10 |  |  |  | 
4 | CC[C@H]1CC[C@@H](Oc2ccc(C3CCN(CCCCC(=O)O)CC3)cc2)CC1 [Example 38, 5-(4-(4-((cis-4-Ethylcyclohexyl)oxy)phenyl)piperidin-1-yl)pentanoic acid] | 2 to 5 | ≤ 2 | > 5 | > 10 |  |  |  | 
5 | CC[C@H]1CC[C@@H](Oc2ccc(C3=CCN(CCCCC(=O)O)CC3)cc2)CC1 [Example 37, 5-(4-(4-((cis-4-Ethylcyclohexyl)oxy)phenyl)-5,6-dihydropyridin-1(2H)-yl)pentanoic acid] |  |  | 2 to 5 | ≤ 5 | ≤ 2 | ≤ 2 |  | 
6 | CC(C)(C)[C@H]1CC[C@H](Oc2ccc(C3CCN(CCC(=O)O)CC3)cc2)CC1 [Example 46, 3-(4-(4-((trans-4-(tert-Butyl)cyclohexyl)oxy)phenyl)piperidin-1-yl)propanoic acid] | ≤ 2 | ≤ 2 | > 5 | 5 to 10 |  |  |  | 
7 | CC[C@H]1CC[C@@H](Oc2ccc(C3=CCN(CCC(=O)O)CC3)cc2)CC1 [Example 33, 3-(4-(4-((cis-4-Ethylcyclohexyl)oxy)phenyl)-5,6-dihydropyridin-1(2H)-yl)propanoic acid] |  |  |  |  | > 5 | ≤ 2 | > 5 | > 10
8 | CCCCCCCCOc1ccc(N2CCN(CCC(=O)O)CC2)nn1 [Example 20, 3-(4-(6-(Octyloxy)pyridazin-3-yl)piperazin-1-yl)propanoic acid] | > 5 | 2 to 5 | > 5 | 5 to 10 |  |  |  | 
9 | O=C(O)CCCN1CCC(c2ccc(OC3CCC4(CCCC4)CC3)cc2)CC1 [Example 42, 4-(4-(4-(Spiro[4.5]decan-8-yloxy)phenyl)piperidin-1-yl)butanoic acid] | > 5 | 2 to 5 | > 5 | 5 to 10 |  |  |  | 
10 | CC(C)(C)[C@H]1CC[C@H](Oc2ccc(C3CCN(CCCC(=O)O)CC3)cc2)CC1 [Example 48, 4-(4-(4-((trans-4-(tert-Butyl)cyclohexyl)oxy)phenyl)piperidin-1-yl)butanoic acid] | ≤ 2 | ≤ 2 | ≤ 2 | ≤ 5 |  |  |  | 
11 | CC[C@H]1CC[C@H](Oc2ccc(C3CCN(CCCCC(=O)O)CC3)cc2)CC1 [Example 32, 5-(4-(4-((trans-4-Ethylcyclohexyl)oxy)phenyl)piperidin-1-yl)pentanoic acid] | > 5 | > 5 | > 5 | ≤ 5 |  |  |  | 
12 | O=C(O)CCCCN1CCC(c2ccc(OC3CCC4(CCCC4)CC3)cc2)CC1 [Example 44, 5-(4-(4-(Spiro[4.5]decan-8-yloxy)phenyl)piperidin-1-yl)pentanoic acid] | > 5 | ≤ 2 | ≤ 2 | > 10 |  |  |  | 
13 | O=C(O)CCN1CC=C(c2ccc(OC3CCC4(CCCC4)CC3)cc2)CC1 [Example 39, 3-(4-(4-(Spiro[4.5]decan-8-yloxy)phenyl)-5,6-dihydropyridin-1(2H)-yl)propanoic acid] |  |  |  |  | > 5 | 2 to 5 | > 5 | > 10
14 | O=C(O)CCCCN1CC=C(c2ccc(OC3CCC4(CCCC4)CC3)cc2)CC1 [Example 43, 5-(4-(4-(Spiro[4.5]decan-8-yloxy)phenyl)-5,6-dihydropyridin-1(2H)-yl)pentanoic acid] |  |  | > 5 | > 10 | > 5 | 2 to 5 |  | 
15 | O=C(O)CCCN1CC=C(c2ccc(OC3CCC4(CCCC4)CC3)cc2)CC1 [Example 41, 4-(4-(4-(Spiro[4.5]decan-8-yloxy)phenyl)-5,6-dihydropyridin-1(2H)-yl)butanoic acid] | > 5 | 2 to 5 | 2 to 5 | ≤ 5 |  |  |  | 
16 | CC(C)(C)[C@H]1CC[C@H](Oc2ccc(C3=CCN(CCC(=O)O)CC3)cc2)CC1 [Example 45, 3-(4-(4-((trans-4-(tert-Butyl)cyclohexyl)oxy)phenyl)-5,6-dihydropyridin-1(2H)-yl)propanoic acid] |  |  | > 5 | 5 to 10 | 2 to 5 | ≤ 2 |  | 
17 | CCCCCCCCOc1ccc(N2CCN(CCCC(=O)O)CC2)cc1 [Example 15, 4-(4-(4-(Octyloxy)phenyl)piperazin-1-yl)butanoic acid] |  |  |  |  | > 5 | ≤ 2 | > 5 | > 10
18 | O=C(O)CCN1CCC(c2ccc(OC3CCC4(CCCC4)CC3)cc2)CC1 [Example 40, 3-(4-(4-(Spiro[4.5]decan-8-yloxy)phenyl)piperidin-1-yl)propanoic acid] | 2 to 5 | ≤ 2 | ≤ 2 | ≤ 5 |  |  |  | 
19 | CC[C@H]1CC[C@H](Oc2ccc(C3=CCN(CCCCC(=O)O)CC3)cc2)CC1 [Example 31, 5-(4-(4-((trans-4-Ethylcyclohexyl)oxy)phenyl)-5,6-dihydropyridin-1(2H)-yl)pentanoic acid] |  |  | > 5 | > 10 | > 5 | ≤ 2 |  | 
20 | CCCCCCCCOc1ccc(C2CCCC(N3CCC(C(=O)O)CC3)C2)cc1 (stereo not drawn) [Example 9, 1-(3-(4-(octyloxy)phenyl)cyclohexyl)piperidine-4-carboxylic acid] | > 5 | > 5 | > 5 | > 10 |  |  |  | 
21 | CC(C)(C)[C@H]1CC[C@H](Oc2ccc(N3CCN(CC45CCC(C(=O)O)(CC4)CC5)CC3)cc2)CC1 [Example 19, 4-((4-(4-((trans-4-(tert-Butyl)cyclohexyl)oxy)phenyl)piperazin-1-yl)methyl)bicyclo[2.2.2]octane-1-carboxylic acid] | > 5 | ≤ 2 | > 5 | ≤ 5 |  |  |  | 
